What was measured:
[1] = test system: PiCl-induced atopic dermatitis model mice (NC/NgaTndCrlj, male); test: Atopic dermatitis mouse model: hair restoration score; assay type: in vivo; design: key to Hair restoration score (average ± standard error): 0 = no hair growth, 3 = hair restoration in 75-100% of site
Procedure: (§1) An atopic dermatitis mouse model (NC/NgaTndCrlj, male) induced by picryl chloride (PiCl) was used to evaluate effects against dermal inflammation and hair conditions on the skin suffering from dermal inflammation.
(§2) PiCl-induced atopic dermatitis model mice were prepared by applying a PiCl solution to the sheared abdomen and footpad for sensitization and applying the PiCl solution to the sheared back and the right and left ears (both the inside and outside thereof) once a week for 5 weeks starting from the 5th day after sensitization for repeated induction. In each group, administration was performed once a day for 28 days starting from the 18th day after PiCl sensitization. Compound A and 0.1% tacrolimus ointment were openly applied to a ca. 3 cm×ca. 5 cm region of the neck and back of the model animals. The animals of the 5th group (the group of combined administration of prednisolone and 0.6 w/v % compound A) were orally administered 1 mg/kg of prednisolone and then transdermally administered 0.6 w/v % compound A. The animals of the 6th group (the group of combined administration of 0.1% tacrolimus ointment and 0.6 w/v % compound A) were administered 0.1% tacrolimus ointment at or beyond 3.5 hours after administration of 0.6 w/v % compound A.
(§3) Each evaluation used a dermatitis score and a hair restoration score. The scores were obtained by grading dermatitis and hair growth/hair restoration conditions at Day 1, 8, 15, 22, and 29 (the next day after final administration) of administration, according to the following criteria.
<Hair Growth/Hair Restoration Condition> A region received transdermal administration (a ca. 3 cm×ca. 5 cm region of the neck and back) of each individual was observed.
0: No hair growth or hair restoration is noted in the observation site.
1: Hair growth and hair restoration are noted in 0<25% of the observation site.
2: Hair growth and hair restoration are noted in 25≦75% of the observation site.
3: Hair growth and hair restoration are noted in 75≦100% of the observation site.
Hair condition in the skin suffering from dermal inflammation was evaluated using hair restoration scores at Day 15, 22 and 29 of administration.

[2] = test system: LPS-stimulated mouse B cell proliferation; test: B cell proliferation suppression test; assay type: cell-based; settings: LPS-stimulated Balb/c spleen B lymphocytic cells, 3H thymidine uptake
Procedure: (§4) B lymphocytic cells (2×10^6/mL) isolated from the spleen of Balb/c mice (weighing 17±1 g) were cultured in a pH 7.4 AIM-V medium containing a given concentration of compound A and 10 mg/mL of a lipopolysaccharide (LPS) at 37° C. for 24 hours, and, after added with 120 nM ^3H thymidine, further cultured for 16 hours. The cells were collected by filter filtration, and the uptake of thymidine into the cells was measured using a liquid scintillation counter to evaluate the cell proliferation-suppressing effect and calculate IC50.

[3] = test system: Con A-stimulated mouse T cell proliferation; test: T cell proliferation suppression test; assay type: cell-based; settings: Con A-stimulated Balb/c thymus T lymphocytic cells, 3H thymidine uptake
Procedure: as §4, with “T lymphocytic” for “B lymphocytic”, “cells (5×10^6/mL)” for “cells (2×10^6/mL)”, “the thymus” for “the spleen”, “and […]” for “and 10”, “of concanavalin A (Con A)” for “of a lipopolysaccharide (LPS)”

[4] = test system: transcription factor NF-κB; test: NF-κB gene transcription suppression test (lac Z reporter, Jurkat cells); assay type: cell-based; settings: Homo sapiens, lac Z under NF-κB site, A23187 + PMA, β-galactosidase activity
Procedure: (§5) Human T lymphocyte Jurkat cells transformed with a β-galactosidase gene (lac Z) having a DNA binding site for the transcription factor NF-κB in its transcriptional control region (2.3×10^6/mL) were cultured together with a given concentration of compound A in a pH 7.4 RPMI-1640 medium at 37° C. for 20 minutes, and, after added with […] A23187 (calcium ionophore) and 50 ng/mL PMA (Phorbol 12-myristate 13-acetate), further cultured for 4 hours. The activity of β-galactosidase was measured by conversion from FDG (fluorescein-di-beta-D-galactopyranoside) to fluorescein. Fluorescent emission was measured using a SpectroFluor Plus plate reader and IC50 was calculated.

[5] = test system: transcription factor NFAT-1; test: NF-AT gene transcription suppression test (lac Z reporter, Jurkat cells); assay type: cell-based; settings: Homo sapiens, lac Z under NFAT-1 site, A23187 + PMA, β-galactosidase activity
Procedure: as §5, with “NFAT-1” for “NF-κB”

[6] = test system: PiCl-induced atopic dermatitis model mice (NC/NgaTndCrlj, male); test: Atopic dermatitis mouse model: dermatitis score; assay type: in vivo; design: key to Dermatitis score (average ± standard error): sum of grades of five findings, each 0 (subclinical) to 3 (severe)
Procedure: as §1, §2, §3
<Dermatitis Findings> The dermatitis score of each individual was expressed as the sum of grades (0: subclinical to 3: severe) of the following dermatitis findings (1) to (5).
(2) Flare/bleeding: Flare and bleeding symptoms in the induction site were observed.
(3) Edema: The edema of the auricle as the induction site was qualitatively observed.
An effect against atopic dermal inflammation was evaluated using the dermatitis score at Day 8 of administration.

[7] = 0.08 w/v % Compound A transdermal once a day, Day 15
[8] = 0.08 w/v % Compound A transdermal once a day, Day 22
[9] = 0.08 w/v % Compound A transdermal once a day, Day 29
[10] = 0.3 w/v % Compound A transdermal once a day, Day 1
[11] = 0.3 w/v % Compound A transdermal once a day, Day 15
[12] = 0.3 w/v % Compound A transdermal once a day, Day 22
[13] = 0.3 w/v % Compound A transdermal once a day, Day 29
[14] = 0.6 w/v % Compound A transdermal once a day, Day 1
[15] = 0.6 w/v % Compound A transdermal once a day, Day 15
[16] = 0.6 w/v % Compound A transdermal once a day, Day 22

Question: For `CCCCCCCC1(CC[C@@H]2[C@@H](C/C=C\CCCC(=O)OC(C)C)[C@@H](O)C[C@H]2O)OCCO1` [Compound A, isopropyl (Z)-7-[(1R,2R,3R,5S)-2-(3,3-ethylenedioxydecyl)-3,5-dihydroxycyclopentyl]hept-5-enoate], which “Hair restoration score (average ± standard error)” value ([1]; 0.08 w/v % Compound A transdermal once a day, Day 1) is on record?
Answer: The value was 0.0 ± 0.0.

Question: What about the “Hair restoration score (average ± standard error)” value [1, 7] of the same compound?
Answer: The value was 2.2 ± 0.1.

Question: And the “Hair restoration score (average ± standard error)” value [1, 8]?
Answer: Its value is 1.4 ± 0.2.

Question: What about the “Hair restoration score (average ± standard error)” value [1, 9] of the same compound?
Answer: The value was 1.5 ± 0.2.

Question: What about the “Hair restoration score (average ± standard error)” value [1, 10] of the same compound?
Answer: The value was 0.0 ± 0.0.

Question: And the “Hair restoration score (average ± standard error)” value [1, 11]?
Answer: Its value is 2.1 ± 0.2.

Question: What about the “Hair restoration score (average ± standard error)” value [1, 12] of the same compound?
Answer: The value was 1.6 ± 0.2.

Question: What about the “Hair restoration score (average ± standard error)” value [1, 13] of the same compound?
Answer: The value was 1.9 ± 0.2.

Question: And the “Hair restoration score (average ± standard error)” value [1, 14]?
Answer: Its value is 0.0 ± 0.0.

Question: And the “Hair restoration score (average ± standard error)” value [1, 15]?
Answer: The value was 1.8 ± 0.2.

Question: And the “Hair restoration score (average ± standard error)” value [1, 16]?
Answer: The value was 1.5 ± 0.2.

Question: What about the “Hair restoration score (average ± standard error)” value ([1]; 0.6 w/v % Compound A transdermal once a day, Day 29, P < 0.05 vs Day 22) of the same compound?
Answer: Its value is 2.0 ± 0.0.

Question: What about the “change in hair restoration score (improvement in the hair loss)” value ([1]; Day 29 of administration compared to Day 22) of the same compound?
Answer: Its value is “observed in a dose-dependent manner”.

Question: And the IC50 [2]?
Answer: Its IC50 is 9.23 µM.

Question: What about the IC50 [3] of the same compound?
Answer: Its IC50 is 6.3 µM.

Question: And the IC50 [4]?
Answer: The IC50 was 1.33 µM.

Question: What about the IC50 [5] of the same compound?
Answer: Its IC50 is 1.32 µM.

Question: And the “Dermatitis score (average ± standard error)” value ([6]; 0.08 w/v % Compound A transdermal once a day, Day 1 of administration)?
Answer: Its value is 3.8 ± 0.4.

Question: And the “Dermatitis score (average ± standard error)” value ([6]; 0.08 w/v % Compound A transdermal once a day, Day 8)?
Answer: Its value is 3.7 ± 0.6.

Question: And the “Dermatitis score (average ± standard error)” value [6, 7]?
Answer: Its value is 6.2 ± 0.7.

Question: And the “Dermatitis score (average ± standard error)” value [6, 8]?
Answer: The value was 8.0 ± 0.5.

Question: And the “Dermatitis score (average ± standard error)” value [6, 9]?
Answer: The value was 9.0 ± 0.7.

Question: And the “Dermatitis score (average ± standard error)” value [6, 10]?
Answer: The value was 3.3 ± 0.5.

Question: And the “Dermatitis score (average ± standard error)” value ([6]; 0.3 w/v % Compound A transdermal once a day, Day 8)?
Answer: Its value is 3.5 ± 0.4.

Question: What about the “Dermatitis score (average ± standard error)” value [6, 11] of the same compound?
Answer: The value was 5.5 ± 0.5.

Question: And the “Dermatitis score (average ± standard error)” value [6, 12]?
Answer: The value was 7.5 ± 0.7.

Question: And the “Dermatitis score (average ± standard error)” value [6, 13]?
Answer: The value was 8.1 ± 0.5.

Question: And the “Dermatitis score (average ± standard error)” value [6, 14]?
Answer: Its value is 3.6 ± 0.3.

Question: What about the “Dermatitis score (average ± standard error)” value [6, 15] of the same compound?
Answer: Its value is 6.0 ± 0.7.

Question: And the “Dermatitis score (average ± standard error)” value [6, 16]?
Answer: The value was 8.3 ± 0.4.

Question: What about the “Dermatitis score (average ± standard error)” value ([6]; 0.6 w/v % Compound A transdermal once a day, Day 29) of the same compound?
Answer: The value was 9.3 ± 0.6.

Question: What about the “progression of early dermatitis” value ([6]; compared to the group administered with the base for compound A, Day 8 dermatitis score) of the same compound?
Answer: Its value is “tendency to be suppressed”.
